Reference: article PMC10536189 (Microorganisms, 2023)
Read-outs that look alike come from different tables or passages of the source.

System: M. tuberculosis
Assay type: cell-based, Mycobacterium tuberculosis (laboratory strain H37Rv)
Conditions: for Time to Positivity (Days.Hours) Experiment 2a / Time to Positivity (Days.Hours) Experiment 2b: diluted inoculum; for Time to Positivity (Days.Hours) Experiment 2a: technical repeat 2a, TB control (no peptide) 15.01; for Time to Positivity (Days.Hours) Experiment 2b: technical repeat 2b, TB control (no peptide) 15.20; for Time to Positivity (Days.Hours) Experiment 1a / Time to Positivity (Days.Hours) Experiment 1b: less diluted inoculum; for Time to Positivity (Days.Hours) Experiment 1a: technical repeat 1a, TB control (no peptide) 7.02; for Time to Positivity (Days.Hours) Experiment 1b: technical repeat 1b, TB control (no peptide) 7.01; for Average % Faster than Control: negative = slower
[1] = peptide 10 µg/mL, overall average of the averages of experiments 1a/1b and 2a/2b
[2] = crude peptide 10 µg/mL, MGIT, independent experiment 1, Control (TB only) 11.10, inoculum emulsified through G25 needle
[3] = crude peptide 10 µg/mL, MGIT, independent experiment 2, Control (TB only) 9.10, inoculum emulsified through G25 needle
[4] = crude peptide 10 µg/mL, average of experiments 1 and 2

Row | Substance | Average % Faster than Control [4] | Time to Positivity (Day.Hours) Experiment 1 | Time to Positivity (Day.Hours) Experiment 2 | other results
1 | 64: peptide from the authors' library (RLARIVVIRVAR) [Peptide 64] | – | – | – | Time to Positivity (Days.Hours) Experiment 2a (peptide 10 µg/mL, MGIT): 15.21 Days.Hours; Time to Positivity (Days.Hours) Experiment 2b (peptide 10 µg/mL, MGIT): 16.13 Days.Hours; Time to Positivity (Days.Hours) Experiment 1a (peptide 10 µg/mL, MGIT): 6.19 Days.Hours; Time to Positivity (Days.Hours) Experiment 1b (peptide 10 µg/mL, MGIT): 6.16 Days.Hours; Average % Faster than Control [1]: −1.4%
2 | VFHLLGKIIHHVGNFV [Clavanin C/Sea squirt, naturally occurring peptide, APD3, sea squirt] | 7.2% | – | – | Time to Positivity (Day.Hours) Experiment 1 [2]: 10.21 Day.Hours; Time to Positivity (Day.Hours) Experiment 2 [3]: 8.12 Day.Hours
3 | FFPYAALKWLRKLLKK [P-04/Tunicate] | 7.2% | 11.02 Day.Hours | 8.08 Day.Hours | –
4 | GLGSLVGNALRIGAKLL [CPF-AM4/Frog] | 9.3% | 10.17 Day.Hours | 8.06 Day.Hours | –
5 | FIFIRWLLKLGHHGRA [Salusin-beta/Scorpion *] | 9.8% | 10.18 Day.Hours | 8.03 Day.Hours | –
6 | YQEPVLGPVRGPFPIIV [Casecidin 17/Cow] | 4.1% | 11.12 Day.Hours | 8.14 Day.Hours | –
7 | FFGSVLKLIPKIL [Temporin-PTa/Frog, naturally occurring peptide, APD3, frog] | 6.3% | – | – | Time to Positivity (Day.Hours) Experiment 1 [2]: 11.07 Day.Hours; Time to Positivity (Day.Hours) Experiment 2 [3]: 8.08 Day.Hours
8 | 65: peptide from the authors' library (RGARIVVIRVAR) [Peptide 65] | – | – | – | Time to Positivity (Days.Hours) Experiment 2a (peptide 10 µg/mL, MGIT): 16.11 Days.Hours; Time to Positivity (Days.Hours) Experiment 2b (peptide 10 µg/mL, MGIT): 16.01 Days.Hours; Time to Positivity (Days.Hours) Experiment 1a (peptide 10 µg/mL, MGIT): 6.16 Days.Hours; Time to Positivity (Days.Hours) Experiment 1b (peptide 10 µg/mL, MGIT): 6.03 Days.Hours; Average % Faster than Control [1]: 0.8%
9 | 49: peptide from the authors' library (VRLRIRVRVIRK) [Peptide 49] | – | – | – | Time to Positivity (Days.Hours) Experiment 2a (peptide 10 µg/mL, MGIT): 15.12 Days.Hours; Time to Positivity (Days.Hours) Experiment 2b (peptide 10 µg/mL, MGIT): 15.02 Days.Hours; Time to Positivity (Days.Hours) Experiment 1a (peptide 10 µg/mL, MGIT): 5.22 Days.Hours; Time to Positivity (Days.Hours) Experiment 1b (peptide 10 µg/mL, MGIT): 6.06 Days.Hours; Average % Faster than Control [1]: 6.2%
10 | FFIYVWRRR [P8/Designed *] | 1.6% | 11.16 Day.Hours | 8.22 Day.Hours | –
11 | FVQWFSKFLGRIL [Temporin L/Frog] | 7.1% | 11.06 Day.Hours | 8.05 Day.Hours | –
12 | 22: peptide from the authors' library (IRMRIRVLL) [Peptide 22] | – | – | – | Time to Positivity (Days.Hours) Experiment 2a (peptide 10 µg/mL, MGIT): 15.19 Days.Hours; Time to Positivity (Days.Hours) Experiment 2b (peptide 10 µg/mL, MGIT): 15.10 Days.Hours; Time to Positivity (Days.Hours) Experiment 1a (peptide 10 µg/mL, MGIT): 6.00 Days.Hours; Time to Positivity (Days.Hours) Experiment 1b (peptide 10 µg/mL, MGIT): 6.07 Days.Hours; Average % Faster than Control [1]: 4.7%
13 | GRLCYCRGWICFCVGR [Protegrin 4/Pig *] | 7.1% | 11.11 Day.Hours | 8.01 Day.Hours | –
14 | RWCFRVCYRGICYRKCR [Tachyplasin II/Crab] | 9.1% | 10.18 Day.Hours | 8.06 Day.Hours | –
15 | 61: peptide from the authors' library (ILKWKTKWWKWFR) [Peptide 61] | – | – | – | Time to Positivity (Days.Hours) Experiment 2a (peptide 10 µg/mL, MGIT): 13.11 Days.Hours; Time to Positivity (Days.Hours) Experiment 2b (peptide 10 µg/mL, MGIT): 14.21 Days.Hours; Time to Positivity (Days.Hours) Experiment 1a (peptide 10 µg/mL, MGIT): 6.20 Days.Hours; Time to Positivity (Days.Hours) Experiment 1b (peptide 10 µg/mL, MGIT): 5.23 Days.Hours; Average % Faster than Control [1]: 10.4%
16 | IsCT2/Scorpion: naturally occurring peptide, APD3, scorpion (IFGAIWNGIKSLF) | 4.9% | 10.23 Day.Hours | 8.21 Day.Hours | –
17 | 62: peptide from the authors' library (ILKWKMFKWKWFR) [Peptide 62] | – | – | – | Effect on TTP of MTB in words (peptide 10 µg/mL, MGIT): delayed TTP; Time to Positivity (Days.Hours) Experiment 2a (peptide 10 µg/mL, MGIT): 16.20 Days.Hours; Time to Positivity (Days.Hours) Experiment 2b (peptide 10 µg/mL, MGIT): 17.16 Days.Hours; Time to Positivity (Days.Hours) Experiment 1a (peptide 10 µg/mL, MGIT): 6.07 Days.Hours; Time to Positivity (Days.Hours) Experiment 1b (peptide 10 µg/mL, MGIT): 7.02 Days.Hours; Average % Faster than Control [1]: −3.4%
18 | 68: peptide from the authors' library (RLRRIVVIRVAR) [Peptide 68] | – | – | – | Time to Positivity (Days.Hours) Experiment 2a (peptide 10 µg/mL, MGIT): 15.00 Days.Hours; Time to Positivity (Days.Hours) Experiment 2b (peptide 10 µg/mL, MGIT): 15.23 Days.Hours; Time to Positivity (Days.Hours) Experiment 1a (peptide 10 µg/mL, MGIT): 6.09 Days.Hours; Time to Positivity (Days.Hours) Experiment 1b (peptide 10 µg/mL, MGIT): 6.17 Days.Hours; Average % Faster than Control [1]: 2.3%
19 | WCFRVCYKGFCYRKCR [Polyphemusin/Crab *] | 5.6% | 11.05 Day.Hours | 8.13 Day.Hours | –
20 | Pd_mastoparan PDD-B/Wasp: naturally occurring peptide, APD3, wasp (INWLKLGKKILGAL) | 6.3% | 11.06 Day.Hours | 8.09 Day.Hours | –

Row | Substance | Average % Faster than Control [4] | Time to Positivity (Day.Hours) Experiment 1 | Time to Positivity (Day.Hours) Experiment 2 | other results
21 | OdVP2/Wasp: naturally occurring peptide, APD3, wasp (ILGIITSLLKSLGKK) | 7.3% | 10.22 Day.Hours | 8.11 Day.Hours | –
22 | VNWKKILGKIIKVVK [Lasioglossin LL-III/Bee] | 13.1% | 9.18 Day.Hours | 8.08 Day.Hours | –
23 | VRRFPWWWPFLRR [Tritrpticin/Pig] | −0.3% | 11.08 Day.Hours | 9.13 Day.Hours | –
24 | RWCVYAYVRVRGVLVR [Arenicin 1/Annelid worm *] | 10.5% | 10.15 Day.Hours | 8.02 Day.Hours | –
25 | FLSLIPSLVGGSISAFK [TsAP-1/Scorpion] | 7.0% | 11.07 Day.Hours | 8.05 Day.Hours | –
26 | GFWGKLFKLGLHGIGL [NRC-15/Flounder] | 5.9% | 11.02 Day.Hours | 8.14 Day.Hours | –
27 | LSFLPKVIGVIGHLIH [Fallaxidin/Frog *] | 3.2% | 11.18 Day.Hours | 8.13 Day.Hours | –
28 | FLPLVTMLLGKLF [Temporin-1Vc/Frog] | 2.5% | 11.12 Day.Hours | 8.21 Day.Hours | –
29 | ALKAALLAILKIVRVI [CM-3/Designed] | 8.0% | 11.04 Day.Hours | 8.03 Day.Hours | –
30 | ILGAILPLVSGLLSNKL [Alyteserin-2b/Toad] | 5.6% | 11.18 Day.Hours | 8.02 Day.Hours | –
31 | LLAGLPKLLCLFFKKC [Brevinin-1DYc/Frog] | 4.0% | 11.10 Day.Hours | 8.16 Day.Hours | –
32 | FGKILGVGKKVLCGLS [Odorranain-H1/Frog *] | 9.6% | 10.19 Day.Hours | 8.03 Day.Hours | –
33 | FITLLLRKFICSITKKC [Brevinin-1Ta/Frog] | 7.0% | 11.07 Day.Hours | 8.05 Day.Hours | –
34 | FLGALAKIISGIF [Temporin-1TSa/Frog] | 8.9% | 11.00 Day.Hours | 8.02 Day.Hours | –
35 | FLPLIAGLIGKLF [Peptide B9/Frog] | 10.0% | 10.19 Day.Hours | 8.01 Day.Hours | –
36 | LFKLLGKIIHHVGNFV [Clavanin E/Sea squirt, naturally occurring peptide, APD3, sea squirt] | 5.8% | – | – | Time to Positivity (Day.Hours) Experiment 1 [2]: 11.05 Day.Hours; Time to Positivity (Day.Hours) Experiment 2 [3]: 8.12 Day.Hours
37 | YAYVRIRGVLVRYRRC [Arenicin-2/Lugworm] | 6.3% | 11.13 Day.Hours | 8.03 Day.Hours | –
38 | 16: peptide from the authors' library (RLKRWWKFL) [Peptide 16] | – | – | – | Time to Positivity (Days.Hours) Experiment 2a (peptide 10 µg/mL, MGIT): 14.17 Days.Hours; Time to Positivity (Days.Hours) Experiment 2b (peptide 10 µg/mL, MGIT): 14.20 Days.Hours; Time to Positivity (Days.Hours) Experiment 1a (peptide 10 µg/mL, MGIT): 6.01 Days.Hours; Time to Positivity (Days.Hours) Experiment 1b (peptide 10 µg/mL, MGIT): 5.22 Days.Hours; Average % Faster than Control [1]: 8.6%
39 | FLGVVFKLASKVFPAV [D28/Designed *] | 7.0% | 11.02 Day.Hours | 8.09 Day.Hours | –
